{
  "source": "patent US20220169680A1",
  "about": "(priority 2018, published 2022)",
  "assay_type_in_all_cases": "cell-based",
  "key": {"[1]": {"tested_on": "A549 cells"}, "[2]": {"tested_on": "MRCS cells"}, "[3]": {"tested_on": "HeLa cells"}, "[4]": {"tested_on": "293T cells"}, "[5]": {"tested_on": "A549 cells", "remark": "listed apart in the source"}, "[6]": {"tested_on": "A549 cells", "remark": "listed apart in the source"}, "[7]": {"tested_on": "A549 cells", "remark": "listed apart in the source"}, "[8]": {"tested_on": "293T cell, HUVEC cell, HCT-116 cell, MKN-45 cell, MRCS cell, U397 cell and ESF-1 cell"}, "[9]": {"tested_on": "HEK293T cells"}, "[10]": {"tested_on": "A549 cells", "remark": "listed apart in the source"}, "[11]": {"tested_on": "3′ UTR region of RELA gene"}, "[12]": {"tested_on": "A549 cells", "remark": "listed apart in the source"}, "[13]": {"tested_on": "A549 cells", "remark": "listed apart in the source"}},
  "note": "“Also recorded” adds a separate entry of the source. Like-named read-outs stand apart in the source and are kept apart here.",
  "data": [
    {"sequence": "CIYRRLKYGLKRGPSTEG [Jilin-2004(H5N1)-M2-50-67]", "values": [
      {"measurement": "cell entry", "setting": "[1]", "result": "entered A549 cells"},
      {"measurement": "cell entry at lower concentrations", "setting": "[1]", "result": "could still enter A549 cells"},
      {"measurement": "cell penetration properties", "setting": "[2]", "result": "consistent with the results obtained using A549 cells"},
      {"measurement": "cell penetration properties", "setting": "[3]", "result": "consistent with the results obtained using A549 cells"}
    ]},
    {"sequence": "DRLFFKCIYRRLKYRLKRRPST [Jilin-2004(H5N1)-M2-44-65 mut26]", "values": [
      {"measurement": "cell-penetrating peptide function compared with the parent polypeptide", "setting": "[1]", "result": "stronger than that of the parent Jilin-2004(H5N1)-M2-44-65 polypeptide"},
      {"measurement": "cell-penetrating peptide function compared with the parent polypeptide", "setting": "[4]", "result": "stronger than that of the parent Jilin-2004(H5N1)-M2-44-65 polypeptide"},
      {"measurement": "ability to carry small RNA into cells compared with the transfection reagent RNAiMax group, qPCR", "setting": "[5]", "result": "stronger than the transfection reagent RNAiMax group"}
    ]},
    {"sequence": "FFKCIYRRLKYGLKRGPS [Jilin-2004(H5N1)-M2-47-64]", "values": [
      {"measurement": "cell entry", "setting": "[1]", "result": "entered A549 cells"},
      {"measurement": "cell entry at lower concentrations", "setting": "[1]", "result": "could still enter A549 cells"},
      {"measurement": "cell entry effect compared with TAT positive control", "setting": "[1]", "result": "stronger than that of the TAT polypeptide"},
      {"measurement": "cell penetration properties", "setting": "[2]", "result": "consistent with the results obtained using A549 cells"},
      {"measurement": "cell penetration properties", "setting": "[3]", "result": "consistent with the results obtained using A549 cells"}
    ]},
    {"sequence": "DRLFFKRIYRRLKYRLKRRPST [Jilin-2004(H5N1)-M2-44-65 mut27]", "values": [
      {"measurement": "cell-penetrating peptide function compared with the parent polypeptide", "setting": "[4]", "result": "stronger than that of the parent Jilin-2004(H5N1)-M2-44-65 polypeptide"},
      {"measurement": "ability to carry small RNA into cells compared with the transfection reagent RNAiMax group, qPCR", "setting": "[5]", "result": "stronger than the transfection reagent RNAiMax group"}
    ]},
    {"sequence": "DRFFFKRIYRRLKYRLKRRPST [Jilin-2004(H5N1)-M2-44-65 mut8]", "values": [
      {"measurement": "cell-penetrating peptide function compared with the parent polypeptide", "setting": "[1]", "result": "stronger than that of the parent Jilin-2004(H5N1)-M2-44-65 polypeptide"},
      {"measurement": "cell-penetrating peptide function compared with the parent polypeptide", "setting": "[2]", "result": "stronger than that of the parent Jilin-2004(H5N1)-M2-44-65 polypeptide"},
      {"measurement": "cell-penetrating peptide function compared with the parent polypeptide", "setting": "[4]", "result": "stronger than that of the parent Jilin-2004(H5N1)-M2-44-65 polypeptide"},
      {"measurement": "ability to carry small RNA compared with the other two polypeptides tested", "setting": "[6]", "result": "even stronger"},
      {"measurement": "carrying Cy3-labeled small RNA into cells", "setting": "[6]", "result": "can carry small RNA into cells"},
      {"measurement": "effect compared with transfection reagent RNAiMax", "setting": "[6]", "result": "stronger than that of the transfection reagent RNAiMax"}
    ]},
    {"sequence": "RRFFFKCIYRRLKYGLKRGPST [Jilin-2004(H5N1)-M2-44-65 mut17]", "values": [
      {"measurement": "cell-penetrating peptide function compared with the parent polypeptide", "setting": "[4]", "result": "stronger than that of the parent Jilin-2004(H5N1)-M2-44-65 polypeptide"},
      {"measurement": "ability to carry small RNA into cells compared with the transfection reagent RNAiMax group, qPCR", "setting": "[5]", "result": "stronger than the transfection reagent RNAiMax group"}
    ]},
    {"sequence": "RLFIKCIYRRLKYGLKRG [Jilin-2004(H5N1)-M2-45-62 mut48]", "values": [
      {"measurement": "cell-penetrating peptide function compared with the parent polypeptide (confocal imaging)", "setting": "[7]", "result": "stronger than that of the parent Jilin-2004(H5N1)-M2-45-62 polypeptide"},
      {"measurement": "ability to carry small RNA into cells compared with the transfection reagent RNAiMax group, qPCR", "setting": "[5]", "result": "stronger than the transfection reagent RNAiMax group"}
    ]},
    {"sequence": "DRFFFKRIFRRFKFRLKRRPST [Jilin-2004(H5N1)-M2-44-65 mut12]", "values": [
      {"measurement": "cell-penetrating peptide function compared with the parent polypeptide", "setting": "[1]", "result": "stronger than that of the parent Jilin-2004(H5N1)-M2-44-65 polypeptide"},
      {"measurement": "cell-penetrating peptide function compared with the parent polypeptide", "setting": "[2]", "result": "stronger than that of the parent Jilin-2004(H5N1)-M2-44-65 polypeptide"},
      {"measurement": "cell-penetrating peptide function compared with the parent polypeptide", "setting": "[4]", "result": "stronger than that of the parent Jilin-2004(H5N1)-M2-44-65 polypeptide"}
    ]},
    {"sequence": "DRFFFKRIYRRLKYRLKRRPKV [Jilin-2004(H5N1)-M2-44-65 mut9]", "values": [
      {"measurement": "cell-penetrating peptide function compared with the parent polypeptide", "setting": "[1]", "result": "stronger than that of the parent Jilin-2004(H5N1)-M2-44-65 polypeptide"},
      {"measurement": "cell-penetrating peptide function compared with the parent polypeptide", "setting": "[2]", "result": "stronger than that of the parent Jilin-2004(H5N1)-M2-44-65 polypeptide"},
      {"measurement": "cell-penetrating peptide function compared with the parent polypeptide", "setting": "[4]", "result": "stronger than that of the parent Jilin-2004(H5N1)-M2-44-65 polypeptide"}
    ]},
    {"sequence": "DRLFFKCIYRRLKYGLKRRPST [Jilin-2004(H5N1)-M2-44-65 mut25]", "values": [
      {"measurement": "cell-penetrating peptide function compared with the parent polypeptide", "setting": "[1]", "result": "stronger than that of the parent Jilin-2004(H5N1)-M2-44-65 polypeptide"},
      {"measurement": "cell-penetrating peptide function compared with the parent polypeptide", "setting": "[2]", "result": "stronger than that of the parent Jilin-2004(H5N1)-M2-44-65 polypeptide"},
      {"measurement": "cell-penetrating peptide function compared with the parent polypeptide", "setting": "[4]", "result": "stronger than that of the parent Jilin-2004(H5N1)-M2-44-65 polypeptide"}
    ]},
    {"sequence": "RLFFKCIYRRLKYGLKRG [Jilin-2004(H5N1)-M2-45-62]", "values": [
      {"measurement": "entry effect compared with other fragments in different cell lines", "setting": "[8]", "result": "even better entry effects"},
      {"measurement": "carrying NS1-GFP plasmid into cells and GFP expression", "setting": "[9]", "result": "could carry NS1-GFP plasmid into HEK293 cells, and GFP protein was expressed in the nucleus"},
      {"measurement": "cell entry", "setting": "[1]", "result": "still had a significant cell entry effect; also recorded: entered A549 cells"},
      {"measurement": "cell entry at lower concentrations", "setting": "[1]", "result": "could still enter A549 cells"},
      {"measurement": "cell entry effect compared with TAT positive control", "setting": "[1]", "result": "stronger than that of the TAT polypeptide"},
      {"measurement": "cell entry effect compared with existing cell-penetrating peptides (Table 4)", "setting": "[1]", "result": "significantly better cell entry effects than existing cell-penetrating peptides"},
      {"measurement": "cell entry of FITC-labeled polypeptide", "setting": "[1]", "result": "could achieve significant A549 cell entry at all concentrations tested"},
      {"measurement": "cell-penetrating peptide effect", "setting": "[1]", "result": "a good cell-penetrating peptide effect"},
      {"measurement": "cell-penetrating peptide function compared with positive control TAT", "setting": "[1]", "result": "stronger than that of the positive control TAT"},
      {"measurement": "entry effect compared with FITC-labeled TAT (positive control)", "setting": "[1]", "result": "much stronger than FITC-labeled TAT polypeptide"},
      {"measurement": "cell penetration properties", "setting": "[2]", "result": "consistent with the results obtained using A549 cells"},
      {"measurement": "cell-penetrating peptide function (confocal imaging)", "setting": "[7]", "result": "all had cell-penetrating peptide functions"},
      {"measurement": "ability to carry small RNA compared with TAT at the same concentration", "setting": "[10]", "result": "significantly stronger"},
      {"measurement": "carrying Cy3-labeled small RNA into cells", "setting": "[10]", "result": "can carry small RNA into cells"},
      {"measurement": "cell penetration properties", "setting": "[3]", "result": "consistent with the results obtained using A549 cells"},
      {"measurement": "ability to carry PGY-dsRNA-6 compared with positive control TAT", "setting": "[11]", "result": "stronger than that of the positive control TAT"},
      {"measurement": "carrying PGY-dsRNA-6 into cells and fulfilling its function (luciferase reporter)", "setting": "[11]", "result": "could all carry PGY-dsRNA-6 into cells and fulfill its function"},
      {"measurement": "ability to carry small RNA compared with TAT at the same concentration", "setting": "[12]", "result": "significantly stronger"},
      {"measurement": "carrying FAM-labeled small RNA into cells", "setting": "[12]", "result": "can all carry small RNA into cells"},
      {"measurement": "ability to carry small RNA (PGY-sRNA-26) into cells, qPCR", "setting": "[5]", "result": "had the ability to carry small RNA into the cells"},
      {"measurement": "ability to carry small RNA into cells compared with the transfection reagent RNAiMax group, qPCR", "setting": "[5]", "result": "stronger than the transfection reagent RNAiMax group"},
      {"measurement": "ability to carry small RNA into cells, qPCR", "setting": "[5]", "result": "all had the ability to carry small RNA into cells"}
    ]},
    {"sequence": "DRLFFKCIYRRLKYGLKRGPST [Jilin-2004(H5N1)-M2-44-65]", "values": [
      {"measurement": "entry effect compared with other fragments in different cell lines", "setting": "[8]", "result": "even better entry effects"},
      {"measurement": "cell entry effect compared with existing cell-penetrating peptides (Table 4)", "setting": "[1]", "result": "significantly better cell entry effects than existing cell-penetrating peptides"},
      {"measurement": "cell-penetrating peptide function compared with positive control TAT", "setting": "[1]", "result": "stronger cell-penetrating peptide functions than that of the positive control TAT"},
      {"measurement": "entry effect compared with other C-terminally truncated polypeptides", "setting": "[1]", "result": "even better entry effects than other polypeptides"},
      {"measurement": "cell-penetrating peptide function compared with positive control TAT", "setting": "[2]", "result": "stronger than that of the positive control TAT"},
      {"measurement": "cell-penetrating peptide function compared with positive control TAT", "setting": "[4]", "result": "stronger than that of the positive control TAT"},
      {"measurement": "carrying Cy3-labeled small RNA into cells", "setting": "[6]", "result": "can carry small RNA into cells"},
      {"measurement": "effect compared with transfection reagent RNAiMax", "setting": "[6]", "result": "stronger than that of the transfection reagent RNAiMax"},
      {"measurement": "ability to carry small RNA into cells compared with the transfection reagent RNAiMax group, qPCR", "setting": "[5]", "result": "stronger than the transfection reagent RNAiMax group"},
      {"measurement": "ability to carry small RNA into cells, qPCR", "setting": "[5]", "result": "all had the ability to carry small RNA into cells"},
      {"measurement": "carrying Cy3-labeled small RNA into cells (super high resolution microscope)", "setting": "[13]", "result": "can carry Cy3-labeled small RNA into A549 cells"},
      {"measurement": "effect compared with RNAiMax or TAT (super high resolution microscope)", "setting": "[13]", "result": "stronger than that of the transfection reagent RNAiMax or of TAT"}
    ]}
  ]
}
